From ChEMBL document CHEMBL4265897, “Discovery of benzothiazole amides as potent antimycobacterial agents” (Bioorg Med Chem Lett, 2018)
Converted amounts (≈) assume the structure as drawn.

Key:
[1] = tested on: Mycobacteroides abscessus; assay: Antimycobacterial activity against Mycobacterium abscessus ATCC 19977 by CLSI method; format: functional
[2] = tested on: Mycolicibacterium fortuitum; assay: Antimycobacterial activity against Mycobacterium fortuitum 41 by CLSI method; format: functional
[3] = tested on: Mycobacteroides abscessus; assay: Antimycobacterial activity against Mycobacterium abscessus 21 by CLSI method; format: functional
[4] = tested on: Mycobacteroides abscessus; assay: Antimycobacterial activity against Mycobacterium abscessus 1 by CLSI method; format: functional
Mycobacterium avium = assay: Antimycobacterial activity against Mycobacterium avium 101 by CLSI method; format: functional
[5] = tested on: Mycobacterium intracellulare; assay: Antimycobacterial activity against Mycobacterium intracellulare 1956 by CLSI method; format: functional
[6] = tested on: Mycobacteroides abscessus; assay: Antimycobacterial activity against Mycobacterium massiliense 119 by CLSI method; format: functional, Mycobacterium abscessus subsp. massiliense
[7] = tested on: Mycobacterium tuberculosis; assay: Antimycobacterial activity against Mycobacterium tuberculosis H37Rv MC2 6206 by CLSI method; format: functional
[8] = tested on: Mycobacteroides abscessus; assay: Antimycobacterial activity against Mycobacterium abscessus 79 by CLSI method; format: functional
Mycobacteroides chelonae = assay: Antimycobacterial activity against Mycobacterium chelonae 93 by CLSI method; format: functional
[9] = tested on: Mycolicibacterium peregrinum; assay: Antimycobacterial activity against Mycobacterium peregrinum ATCC 700686 by CLSI method; format: functional
Cytochrome P450 3A4 [10] = target: T1, Cytochrome P450 3A4 (Homo sapiens, UniProt P08684); assay: Inhibition of CYP3A4 (unknown origin) using midazolam as substrate; format: ADME
T1 sequence (P08684 whole entry): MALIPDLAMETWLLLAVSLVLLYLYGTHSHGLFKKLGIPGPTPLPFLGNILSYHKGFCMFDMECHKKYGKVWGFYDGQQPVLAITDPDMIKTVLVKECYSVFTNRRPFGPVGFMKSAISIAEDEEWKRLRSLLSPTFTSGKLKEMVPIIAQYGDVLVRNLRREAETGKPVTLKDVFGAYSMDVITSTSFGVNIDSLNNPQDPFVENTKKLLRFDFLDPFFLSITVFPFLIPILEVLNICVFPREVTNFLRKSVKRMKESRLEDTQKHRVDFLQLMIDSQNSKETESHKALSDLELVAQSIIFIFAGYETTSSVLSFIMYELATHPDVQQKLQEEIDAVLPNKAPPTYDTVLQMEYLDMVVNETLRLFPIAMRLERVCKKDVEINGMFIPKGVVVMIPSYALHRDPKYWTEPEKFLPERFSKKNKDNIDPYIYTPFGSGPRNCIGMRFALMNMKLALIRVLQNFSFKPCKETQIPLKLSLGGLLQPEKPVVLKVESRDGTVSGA

[11] = tested on: Mycobacteroides abscessus; assay: Antimycobacterial activity against Mycobacterium abscessus 103 by CLSI method; format: functional
[12] = Protein binding in human serum; format: ADME, cell-free; settings: read-out: PB
[13] = Solubility of the compound; format: physicochemical
Cytochrome P450 2C19 = Cytochrome P450 2C19 (Homo sapiens, UniProt P33261); assay: Inhibition of CYP2C19 (unknown origin); format: ADME
Sequence of Cytochrome P450 2C19 (P33261 whole entry): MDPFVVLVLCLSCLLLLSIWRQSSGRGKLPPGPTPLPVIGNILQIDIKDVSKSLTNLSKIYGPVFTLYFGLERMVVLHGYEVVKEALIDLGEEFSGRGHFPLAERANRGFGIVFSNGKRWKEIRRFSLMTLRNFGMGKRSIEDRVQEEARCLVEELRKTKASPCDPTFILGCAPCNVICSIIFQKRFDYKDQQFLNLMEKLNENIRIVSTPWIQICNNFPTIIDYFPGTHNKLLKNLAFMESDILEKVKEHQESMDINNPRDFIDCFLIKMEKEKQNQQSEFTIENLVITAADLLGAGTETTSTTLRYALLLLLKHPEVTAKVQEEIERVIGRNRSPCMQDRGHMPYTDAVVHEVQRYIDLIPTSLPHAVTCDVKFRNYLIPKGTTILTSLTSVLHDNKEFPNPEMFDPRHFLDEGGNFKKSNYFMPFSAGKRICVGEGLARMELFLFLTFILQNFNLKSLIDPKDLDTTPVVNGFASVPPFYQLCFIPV

Cytochrome P450 2C8 = target: T2, Cytochrome P450 2C8 (Homo sapiens, UniProt P10632); assay: Inhibition of CYP2C8 (unknown origin); format: ADME
T2 sequence (P10632 whole entry): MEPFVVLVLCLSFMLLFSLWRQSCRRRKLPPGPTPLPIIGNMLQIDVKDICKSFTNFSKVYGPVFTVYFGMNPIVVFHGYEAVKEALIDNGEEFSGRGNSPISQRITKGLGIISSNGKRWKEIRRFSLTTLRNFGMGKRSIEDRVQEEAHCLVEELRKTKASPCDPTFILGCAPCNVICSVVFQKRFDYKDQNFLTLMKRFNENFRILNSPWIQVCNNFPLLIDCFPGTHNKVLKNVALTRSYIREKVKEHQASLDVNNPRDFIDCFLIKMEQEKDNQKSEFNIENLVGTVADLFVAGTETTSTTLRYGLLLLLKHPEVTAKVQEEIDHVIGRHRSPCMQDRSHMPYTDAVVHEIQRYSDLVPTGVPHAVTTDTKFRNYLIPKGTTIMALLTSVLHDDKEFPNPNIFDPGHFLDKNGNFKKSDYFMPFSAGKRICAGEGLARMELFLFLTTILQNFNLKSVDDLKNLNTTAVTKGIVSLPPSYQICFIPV

Cytochrome P450 2C9 = Cytochrome P450 2C9 (Homo sapiens, UniProt P11712); assay: Inhibition of CYP2C9 (unknown origin); format: ADME
Sequence of Cytochrome P450 2C9 (P11712 whole entry): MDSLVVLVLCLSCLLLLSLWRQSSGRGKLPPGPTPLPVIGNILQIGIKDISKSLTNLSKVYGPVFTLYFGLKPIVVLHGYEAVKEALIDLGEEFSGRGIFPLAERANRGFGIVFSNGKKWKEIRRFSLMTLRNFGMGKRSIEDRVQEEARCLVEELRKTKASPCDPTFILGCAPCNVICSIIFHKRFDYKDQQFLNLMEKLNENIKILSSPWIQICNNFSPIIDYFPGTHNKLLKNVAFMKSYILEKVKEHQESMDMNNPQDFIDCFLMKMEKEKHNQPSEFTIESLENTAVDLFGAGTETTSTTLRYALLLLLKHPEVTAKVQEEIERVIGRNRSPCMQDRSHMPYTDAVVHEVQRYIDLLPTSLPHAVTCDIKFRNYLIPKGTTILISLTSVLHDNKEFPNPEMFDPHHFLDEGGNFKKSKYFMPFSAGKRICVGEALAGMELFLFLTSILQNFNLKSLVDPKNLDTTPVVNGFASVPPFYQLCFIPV

Cytochrome P450 3A4 [14] = target: T1, Cytochrome P450 3A4; assay: Inhibition of CYP3A4 (unknown origin) using testosterone as substrate; format: ADME
HepG2 = assay: Cytotoxicity against human HepG2 cells; format: cell-based
Cytochrome P450 2D6 = Cytochrome P450 2D6 (Homo sapiens, UniProt P10635); assay: Inhibition of CYP2D6 (unknown origin); format: ADME
Sequence of Cytochrome P450 2D6 (P10635 whole entry): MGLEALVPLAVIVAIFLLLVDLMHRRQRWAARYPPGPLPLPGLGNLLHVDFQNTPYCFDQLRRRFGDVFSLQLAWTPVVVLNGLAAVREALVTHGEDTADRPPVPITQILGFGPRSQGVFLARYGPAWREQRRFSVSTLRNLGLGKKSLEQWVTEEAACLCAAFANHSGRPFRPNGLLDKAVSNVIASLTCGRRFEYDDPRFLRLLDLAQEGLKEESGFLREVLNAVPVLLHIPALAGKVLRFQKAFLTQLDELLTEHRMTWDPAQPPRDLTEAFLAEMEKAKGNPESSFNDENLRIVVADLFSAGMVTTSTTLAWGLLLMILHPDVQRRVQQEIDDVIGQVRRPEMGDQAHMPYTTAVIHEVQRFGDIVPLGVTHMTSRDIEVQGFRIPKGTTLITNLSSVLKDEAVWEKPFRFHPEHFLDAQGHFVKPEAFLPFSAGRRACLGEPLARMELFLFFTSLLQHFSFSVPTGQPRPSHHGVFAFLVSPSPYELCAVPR

RBCs = assay: Hemolytic activity in RBC (unknown origin) at 128 ug/ml; format: ADME, cell-based; settings: erythrocyte
Cytochrome P450 2B6 = target: T3, Cytochrome P450 2B6 (Homo sapiens, UniProt P20813); assay: Inhibition of CYP2B6 (unknown origin); format: ADME
T3 sequence (P20813 whole entry): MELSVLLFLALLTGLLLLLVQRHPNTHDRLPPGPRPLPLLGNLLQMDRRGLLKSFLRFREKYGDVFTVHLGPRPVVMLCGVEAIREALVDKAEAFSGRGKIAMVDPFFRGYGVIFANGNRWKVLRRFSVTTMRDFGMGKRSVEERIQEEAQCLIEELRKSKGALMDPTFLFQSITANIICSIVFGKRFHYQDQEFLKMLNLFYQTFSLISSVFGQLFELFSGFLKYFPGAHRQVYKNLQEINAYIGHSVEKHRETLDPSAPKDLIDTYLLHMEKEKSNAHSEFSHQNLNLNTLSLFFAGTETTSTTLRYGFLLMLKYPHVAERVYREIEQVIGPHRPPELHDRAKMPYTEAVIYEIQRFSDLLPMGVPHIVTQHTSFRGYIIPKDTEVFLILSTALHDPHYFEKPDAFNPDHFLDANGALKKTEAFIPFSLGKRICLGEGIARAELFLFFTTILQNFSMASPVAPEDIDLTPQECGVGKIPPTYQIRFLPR

CYP2B6 = target: T4, CYP2B6 (Homo sapiens, UniProt P20813); assay: Inhibition of CYP2B6 (unknown origin) at 10 uM; format: ADME
T4 sequence (P20813 whole entry): T3 sequence (P20813 whole entry)

CYP3A4 = CYP3A4 (Homo sapiens, UniProt P08684); assay: Inhibition of CYP3A4 (unknown origin) at 10 uM; format: ADME
Sequence of CYP3A4 (P08684 whole entry): as the sequence (P08684 whole entry) above

Mus musculus = assay: Toxicity in mouse assessed as abnormal behavior at 100 to 300 mg/kg, po administered as single dose; format: organism-based; settings: in vivo

| SMILES | MIC [1] | MIC [2] | MIC [3] | MIC [4] | MIC (Mycobacterium avium) | MIC [5] | MIC [6] | MIC [7] | MIC [8] | MIC (Mycobacteroides chelonae) | MIC [9] | MIC [11] | other results |
| --- | --- | --- | --- | --- | --- | --- | --- | --- | --- | --- | --- | --- | --- |
| O=C(Nc1nc2ccc(C(F)(F)F)cc2s1)C1CCC2(CC1)CC2 | 32 µg/mL (≈ 90.3 µM) | > 64 µg/mL | 16 µg/mL (≈ 45.1 µM) | 8 µg/mL (≈ 22.6 µM) | 64 µg/mL (≈ 181 µM) | > 64 µg/mL | 8 µg/mL (≈ 22.6 µM) | 32 µg/mL (≈ 90.3 µM) | 16 µg/mL (≈ 45.1 µM) | 4 µg/mL (≈ 11.3 µM) | > 64 µg/mL | – | – |
| O=C(Nc1nc2ccc(C(F)(F)F)cc2s1)C1CCCC2(CC2)C1 (stereo unspecified) | 4 µg/mL (≈ 11.3 µM) | > 64 µg/mL | 2 µg/mL (≈ 5.64 µM) | 8 µg/mL (≈ 22.6 µM) | > 64 µg/mL | > 64 µg/mL | 2 µg/mL (≈ 5.64 µM) | – | 1 µg/mL (≈ 2.82 µM) | 1 µg/mL (≈ 2.82 µM) | 1 µg/mL (≈ 2.82 µM) | – | – |
| CC1CC(C(=O)Nc2nc3ccc(OC(F)(F)F)cc3s2)CC(C)(C)C1 (stereo unspecified) | – | 1 µg/mL (≈ 2.59 µM) | 0.25 µg/mL (≈ 0.647 µM) | 0.5 µg/mL (≈ 1.29 µM) | > 64 µg/mL | > 64 µg/mL | 0.25 µg/mL (≈ 0.647 µM) | – | 0.25 µg/mL (≈ 0.647 µM) | 0.12 µg/mL (≈ 0.311 µM) | 0.25 µg/mL (≈ 0.647 µM) | 0.25 µg/mL (≈ 0.647 µM) | IC50 (Cytochrome P450 3A4 [10]): > 20 µM; fraction unbound [12]: < 0.01; solubility [13]: Insoluble; IC50 (Cytochrome P450 2C19): > 20 µM; IC50 (Cytochrome P450 2C8): > 20 µM; IC50 (Cytochrome P450 2C9): > 20 µM; IC50 (Cytochrome P450 3A4 [14]): > 20 µM; IC50 (HepG2): > 100 µM; IC50 (Cytochrome P450 2D6): > 20 µM; Activity (RBCs): Non-Toxic; IC50 (Cytochrome P450 2B6): > 20 µM |
| CC12CCCC(C(=O)Nc3nc4cc(Cl)cc(Cl)c4s3)(CCC1)C2 | – | 0.06 µg/mL (≈ 0.157 µM) | 0.03 µg/mL (≈ 0.0783 µM) | 0.06 µg/mL (≈ 0.157 µM) | 2 µg/mL (≈ 5.22 µM) | 2 µg/mL (≈ 5.22 µM) | 0.03 µg/mL (≈ 0.0783 µM) | ≤ 0.12 µg/mL | 0.03 µg/mL (≈ 0.0783 µM) | 0.03 µg/mL (≈ 0.0783 µM) | 0.03 µg/mL (≈ 0.0783 µM) | 0.03 µg/mL (≈ 0.0783 µM) | inhibition at 10 µM (CYP2B6): > 50%; inhibition at 10 µM (CYP3A4): > 50% |
| CC1CC(C(=O)Nc2nc3c(F)cc(F)cc3s2)CC(C)(C)C1 (stereo unspecified) | – | 0.25 µg/mL (≈ 0.739 µM) | 0.5 µg/mL (≈ 1.48 µM) | 1 µg/mL (≈ 2.95 µM) | 64 µg/mL (≈ 189 µM) | 4 µg/mL (≈ 11.8 µM) | 0.5 µg/mL (≈ 1.48 µM) | – | 0.5 µg/mL (≈ 1.48 µM) | 0.25 µg/mL (≈ 0.739 µM) | 0.2 µg/mL (≈ 0.591 µM) | 0.5 µg/mL (≈ 1.48 µM) | Activity (Mus musculus): Non-Toxic |
| CC12CCCC(C(=O)Nc3nc4ccc(OC(F)(F)F)cc4s3)(CCC1)C2 | – | 0.5 µg/mL (≈ 1.25 µM) | 0.06 µg/mL (≈ 0.151 µM) | 0.06 µg/mL (≈ 0.151 µM) | 2 µg/mL (≈ 5.02 µM) | 2 µg/mL (≈ 5.02 µM) | 0.06 µg/mL (≈ 0.151 µM) | 1 µg/mL (≈ 2.51 µM) | 0.06 µg/mL (≈ 0.151 µM) | 0.06 µg/mL (≈ 0.151 µM) | 0.06 µg/mL (≈ 0.151 µM) | 0.12 µg/mL (≈ 0.301 µM) | inhibition at 10 µM (CYP2B6): > 50%; inhibition at 10 µM (CYP3A4): > 50% |
| CC1CC(C(=O)Nc2nc3cc(Br)ccc3s2)CC(C)(C)C1 (stereo unspecified) | 32 µg/mL (≈ 83.9 µM) | 16 µg/mL (≈ 42 µM) | 16 µg/mL (≈ 42 µM) | 32 µg/mL (≈ 83.9 µM) | > 64 µg/mL | > 64 µg/mL | 64 µg/mL (≈ 168 µM) | – | 16 µg/mL (≈ 42 µM) | 16 µg/mL (≈ 42 µM) | 4 µg/mL (≈ 10.5 µM) | 16 µg/mL (≈ 42 µM) | – |
| CC1CC(C(=O)Nc2nc3ccc(Cl)cc3s2)CC(C)(C)C1 (stereo unspecified) | – | 0.25 µg/mL (≈ 0.742 µM) | 0.25 µg/mL (≈ 0.742 µM) | 0.5 µg/mL (≈ 1.48 µM) | 16 µg/mL (≈ 47.5 µM) | 4 µg/mL (≈ 11.9 µM) | 0.5 µg/mL (≈ 1.48 µM) | 4 µg/mL (≈ 11.9 µM) | 0.25 µg/mL (≈ 0.742 µM) | 0.25 µg/mL (≈ 0.742 µM) | 0.12 µg/mL (≈ 0.356 µM) | 0.25 µg/mL (≈ 0.742 µM) | IC50 (Cytochrome P450 3A4 [10]): > 20 µM; fraction unbound [12]: < 0.01; solubility [13]: Insoluble; IC50 (Cytochrome P450 2C19): 15.5 µM; IC50 (Cytochrome P450 2C8): > 20 µM; IC50 (Cytochrome P450 2C9): > 20 µM; IC50 (Cytochrome P450 3A4 [14]): > 20 µM; IC50 (Cytochrome P450 2D6): 0.2 µM; Activity (RBCs): Non-Toxic; IC50 (Cytochrome P450 2B6): 14.9 µM |
